One assay concerns 5-HT2B receptor.
Experiment: not given
To be noted: cited from earlier work.
Chain of 5-HT2B receptors (P41595 whole entry): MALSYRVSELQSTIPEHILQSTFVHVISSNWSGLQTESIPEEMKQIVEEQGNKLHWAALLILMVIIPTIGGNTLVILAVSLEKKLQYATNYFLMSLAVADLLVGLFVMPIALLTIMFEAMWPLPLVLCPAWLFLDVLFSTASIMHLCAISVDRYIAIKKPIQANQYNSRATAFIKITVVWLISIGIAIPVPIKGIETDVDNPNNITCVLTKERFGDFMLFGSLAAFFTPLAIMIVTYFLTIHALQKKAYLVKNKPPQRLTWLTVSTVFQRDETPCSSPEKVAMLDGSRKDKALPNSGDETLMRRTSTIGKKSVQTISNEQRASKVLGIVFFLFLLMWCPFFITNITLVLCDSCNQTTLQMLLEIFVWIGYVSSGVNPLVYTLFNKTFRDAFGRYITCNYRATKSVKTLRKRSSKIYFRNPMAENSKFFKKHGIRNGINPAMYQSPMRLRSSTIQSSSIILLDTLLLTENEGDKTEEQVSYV
For the compound `CCNC(C)Cc1cccc(C(F)(F)F)c1` (stereo not drawn) [Fenfluramine], the “activation of 5-HT2B receptors” value is “potently activate”.
On to `CC[C@@H](CO)NC(=O)[C@@H]1C=C2c3cccc4[nH]cc(c34)C[C@H]2N(C)C1` [Methylergonovine], for which the “activation of 5-HT2B receptors” value was “potently activate”.
Regarding `CCCN1C[C@H](CSC)C[C@@H]2c3cccc4[nH]cc(c34)C[C@H]21` [Pergolide], the “activation of 5-HT2B receptors” value is “potently activate”.
For the compound `CN1C[C@H](C(=O)N[C@]2(C)O[C@@]3(O)[C@@H]4CCCN4C(=O)[C@H](Cc4ccccc4)N3C2=O)C=C2c3cccc4[nH]cc(c34)C[C@H]21` [ergotamine], the “activation of 5-HT2B receptors” value is listed as “potently activate”.
Consider `CC(N)Cc1cccc(C(F)(F)F)c1` (stereo not drawn) [norfenfluramine], for which the “activation of 5-HT2B receptors” value is “potently activate”.

The next assay addresses 5-HT2B receptors (Homo sapiens, UniProt P41595). Put plainly: 5-HT2B functional assays at the PDSP. Type of assay: cell-based. Conditions: among the 9 5-HT2B ligands.
As for `CC[C@@H](CO)NC(=O)[C@@H]1C=C2c3cccc4[nH]cc(c34)C[C@H]2N(C)C1` [Compound 7, methylergometrine], the “agonist activity in 5-HT2B functional assays” value is “strong agonist activity”.
